Results as given in US9814709B2, “Bruton's tyrosine kinase inhibitor” (HEFEI INSTITUTES OF PHYSICAL SCIENCE, CHINESE ACADEMY OF …, priority 2014, dated 2017).

Test system: SD rat adjuvant arthritis (AA) model
Assay: SD rat adjuvant arthritis (AA) model, arthritis index
Type: in vivo
Description: In this example, SD rat adjuvant arthritis (AA) model (purchased from the Experimental Animal Center of Anhui Province) was used. PCI-32765 and methotrexate (MTX) were used as positive control (both purchased from Shanghai Chemexpress). The therapeutic effect of Compound 1 on AA rats was studied via the combination of in vivo and in vitro administration. 10 mg/nal of complete Freund's adjuvant (CFA, purchased from Shanghai Chemexpress) was mixed well, and 0.1 ml of CFA was intracutaneously injected into each rat at right posterior plantar to induce inflammation. The normal group was injected with saline via the same method. On the 17th day, the successful modeling male SD rats were randomly divided into 7 groups with 10 rats in each group, namely the model group, the small/medium/large dose of Compound 1 group (12.5, 25, 50 mg/kg/per administration, intraperitoneal injection, one administration per day for 16 days), the Compound 19 group (25 mg/kg/per administration, intraperitoneal injection, one administration per day for 16 days), the positive control PCI-32765 group (25 mg/kg/per administration, intraperitoneal injection, one administration per day for 16 days), the MTX group (0.5 mg/kg, intragastrical, one administration every 3 days, totally 6 times). The rats in the model group were intraperitoneally injected with the same amount of DMSO solution.

CN(Cc1cnc2nc(N)nc(N)c2n1)c1ccc(C(=O)N[C@@H](CCC(=O)O)C(=O)O)cc1 [MTX, methotrexate, reference compound]
effect on arthritis index of rats compared with the model group (0.5 mg/kg intragastrical every 3 days, starting from day 21): significantly reduced

C=CC(=O)N1CCC[C@@H](n2nc(-c3ccc(Oc4ccccc4)cc3)c3c(N)ncnc32)C1 [PCI-32765, reference compound]
effect on arthritis index of rats (25 mg/kg intraperitoneal once per day, starting from day 24): significantly reduce
